What all share (type): cell-based
Test [1] concerns PD-L1. The test can be described thus: Cell-surface PD-L1 expression by flow cytometry. To be noted: 12.5 μM Compound A, 1 μM FUdR; 24 hours. As for the experimental part:
(§1) Experimental Overview. Programmed death-ligand 1 (PD-L1) is a type 1 transmembrane protein that plays a major role in suppressing the innate and adaptive arms of the immune system. The PD-1/PD-L1 pathway represents an adaptive immune resistance mechanism exerted by tumor cells in response to endogenous immune anti-tumor activity and is a well-established therapeutic target in cancer therapy. Cancer cells were treated with vehicle control (DMSO), the fluoropyrimidine FUdR (also known as floxuridine) alone, Compound A alone, or the combination of Compound A and FUdR, and the expression level of the immune checkpoint protein PD-L1 was measured by both Western blotting and flow cytometry and compared to control. Cell lines assayed for total PD-L1 protein expression by Western blotting included, pancreatic cancer, PANC-1; non-small cell lung cancer, H460; colorectal cancer, HCT116; breast cancer, MCF-7; melanoma, MeWo. Two cell lines were advanced to analyze cell surface PD-L1 by flow cytometry, MCF-7 and PANC-1.
Cell Surface Flow Cytometry. Cells were seeded in 6-well plates and permitted to adhere overnight. Media was removed and replaced with media containing the indicated concentrations of Compound A, FUdR or a combination of both, positive control cells were treated with IFNγ. Cells were then incubated for 24 hours. At the conclusion of specified timepoints, cells were washed with PBS and removed from the plates using trypsin-EDTA. Cells were counted and 300,000 cells were washed in staining buffer and incubated in PD-L1 or IgG antibody on ice for 40 minutes. Cells were then washed in staining buffer twice and finally resuspended in 300 μL of staining buffer and transferred to BD Falcon™ round-bottom tube. Dot plot for FSC v SSC were used to gate cell population and doublets were excluded on FL-4 histogram height versus area/width. IgG isotype control stained sample was used to identify the positively stained population. Percentage positive population and median fluorescent intensity values were exported and analyzed in Microsoft Excel and GraphPad Prism 6. Statistical analysis consisted of one-way ANOVA with Tukey's multiple comparisons testing.
On the technique in general: In flow cytometry, cells or beads pass a laser one at a time.

A further test concerns calreticulin. The experiment in a line: Cell surface calreticulin by flow cytometry. The note with it: 6.25 μM Compound A, 1 μM FUdR, 500 nmol/L doxorubicin; 4 hours. An excerpt: Experimental Overview. Tumor cells undergoing immunogenic cell death (ICD) emit damage associated molecular patterns (DAMPs). ICD is a sub-class of cell death that results in the potent stimulation of the innate immune system and subsequently the stimulation of adaptive immune responses. The cell surface expression of calreticulin during cell death is one of several established DAMPs characteristic of immunogenic cell death. Calreticulin translocates from the endoplasmic reticulin to the cell membrane where it functions as a potent “eat me” signal for macrophages and dictates tumor antigen transfer and therefore the immunogenicity of cancer cell death. PANC1 pancreatic carcinoma cells were treated with vehicle control (DMSO), 6.25 μM Compound A, 1 μM FUdR, or the combination of 6.25 μM Compound A and 1 μM FUdR for 4 hours and the concentration of cell surface calreticulin was deteremined by flow cytometry.
Cell Line Model Selection and Preparation. The PANC1 pancreatic cancer cell line was purchased from ATCC. Cells were cultured and expanded in humidified incubators at 5% CO2 until sufficient cells were available.
Drug Preparation and Treatments. All drugs/compounds were prepared freshly in cell culture media from 50 mM frozen stocks prior to treatment. Cells were seeded in 6-well plates and permitted to adhere overnight. Media was removed and replaced with media containing 6.25 μM Compound A, 1 μM FUdR or a combination of 6.25 μM Compound A and 1 μM FUdR. […]
Detection of Cell Surface Calreticulin. Cell surface calreticulin was quantified by flow cytometry. […] Cells were counted and 300,000 cells were washed in staining buffer and incubated in Calreticulin (D3E6) XP Alexa Fluor 488 Conjugate antibody (Cell Signaling) or IgG antibody (negative control antibody) on ice for 40 minutes. […] The IgG isotype control stained sample was used to correctly identify the positively stained population in which median fluorescence intensity was determined. Median fluorescence intensity values were exported and analyzed in Microsoft Excel and GraphPad Prism 6. […]

The test system of test [2] is PD-L1. The test can be described thus: Total PD-L1 expression by Western blotting in cancer cell lines. To be noted: 12.5 μM Compound A. Here is the method:
as §1
Western Blotting. Cells were cultured in the presence of the indicated concentrations of Compound A, 5-fluorodeoxyuridine (FUdR), or a combination of both in a P100 cell culture dishes for 12 or 24 hours. At the conclusion of specified time-points, cells were scraped in PBS containing NaF and Na3VO4, pelleted by centrifugation, washed with PBS and pelleted again. […] The concentration of the isolated supernatant was determined by BCA assay on a CLARIOstar microplate reader and the required volume of whole-cell lysate was denatured by the addition of Sample Buffer, Laemmli 2×Concentrate followed by boiling at 95° C. for 5 min. […] Images were analyzed in ImageJ to obtain PD-L1 relative density values which were normalised to relative density of loading control. Once the primary image acquisition was complete, the pre-cast gels and corresponding immunoblots were further imaged for total protein as a quality control measure following a UV-induced 1-minute reaction to produce fluorescence. […]

On to `O=c1[nH]c(=O)n([C@H]2C[C@H](O)[C@@H](CO)O2)cc1F` [FUdR], for which, in the test with PD-L1 [1], the “increase in cell-surface PD-L1 expression compared to control, MCF-7 cells” value was determined as 4.7 fold and the “increase in cell-surface PD-L1 expression compared to control, PANC-1 cells” value is ~10 fold. The “increase in cell surface expression of calreticulin compared to control, PANC1 cells” value with calreticulin was “no significant difference”. In the test with PD-L1 [2] (1 μM FUdR, 12 and 24 hours, compared to control), the “total PD-L1 expression in HCT116, MCF-7, PANC-1 and Mewo cell lines” value was “significant increase”. Further, in the test with PD-L1 [2] (PD-L1 high at baseline, 1 μM FUdR), the “total PD-L1 expression in H460 cell line” value is given as “did not induce”.
With `C[C@@H](NS(=O)(=O)CCCCCN1CC(=O)NC1=O)c1ccc(F)c(OCC2CC2)c1` [Compound A], in the test on PD-L1 [1], the “increase in cell-surface PD-L1 expression compared to control, MCF-7 cells” value is recorded as “No significant difference” and the “increase in cell-surface PD-L1 expression compared to control, PANC-1 cells” value was “the same as vehicle control cells”. In the test on calreticulin, the “increase in cell surface expression of calreticulin compared to control, PANC1 cells” value is given as “no significant difference”. For the same compound, the “total PD-L1 expression, all cell lines” value with PD-L1 [2] (MeWo, MCF-7, HCT116, H460, PANC-1, 12 and 24 hours) is given as “unchanged”.

Source of the values: US20230263773A1, “COMBINATION THERAPY WITH DEOXYURIDINE TRIPHOSPHATASE INHIBITORS” (CV6 Therapeutics (NI) Limited, priority 2020, published 2023).
